Source: patent publication US6569893B2, “Amino acid derivatives of triptolide compounds as immune modulators and anticancer agents” (Pharmagenesis, Inc., priority 2001, dated 2003)

How the values were obtained:
[1] = system: Jurkat human T lymphocyte cell line; experiment: Terminal deoxynucleotidyl transferase (TdT, TUNEL) apoptosis assay after incubation of compound with human serum; type: cell-based; settings: for EC50: Jurkat cells, 24 h, compound pre-incubated 48 hr at 37° C. in pooled human serum, concentration inducing 50% apoptosis, read-out: ED50 (nM) after 48 hr incubation with human serum; for Conversion (relative activity compared to PG490) (%): percent of ED50 relative to triptolide incubated in parallel in human serum (taken as 100%)
Description: (§1) Several compounds of formula I were prepared, as described in the Examples. In preliminary assays, the compounds were evaluated for their capacity to induce apoptosis in cells from the Jurkat human T lymphocyte cell line, after incubation with pooled human serum for 48 hrs at 37° C. (see Example 7). One of the compounds was also analyzed for its capacity to inhibit IL-2 production in Jurkat human T lymphocyte cells (see Example 8). Controls consisted of the compounds incubated in complete tissue culture medium (RPMI 1640 medium plus 5% heat-inactivated fetal calf serum, 1% HEPES, 1% pen/strep, 1% glutamine) rather than human serum.
(§2) The ED50/IC50 values (column 3) are calculated directly from the data in each experiment, and the % conversion values (column 4) are calculated as percent of the ED50 or IC50 value produced by triptolide, incubated in the same plasma (i.e. in the same experiment).
Pooled human serum was stored in aliquots at −80° C. Test compounds were added at 20 mM to thawed human serum in 1.5 ml microfuge tubes and incubated at 37° C. in a water bath for 48 hours. The test samples were placed on ice until dilution for the bioassay. Controls consisted of the compounds incubated in complete tissue culture medium (RPMI 1640 medium plus 5% heat-inactivated fetal calf serum, 1% HEPES, 1% pen/strep, 1% glutamine) rather than human serum.
Test samples were diluted to 1 mM in complete tissue culture medium. Aliquots were placed in microculture plates and serial dilutions were prepared so that the final concentration would encompass the range of 2 to 6,000 nM with half-log increments. Cells from an exponentially expanding culture of the Jurkat human T lymphocyte cell line (#TIB-152 obtained from American Type Culture Collection, Manassas, Va.) were harvested, washed once by centrifugation and dilution in complete tissue culture medium, and diluted to a concentration of 1×10^6 cells/ml. A volume of 100 μl of Jurkat cells (1×10^5 cells) was added to wells containing 100 μl of the diluted compounds, and the plates were incubated at 37° C. in a 5% CO2 incubator. After 24 hours, the plates were centrifuged to pellet the cells, and the cells were washed with PBS. The cells were fixed in paraformaldehyde, washed, treated with ethanol, washed and then incubated with the enzyme terminal deoxynucleotidyl transferase (TdT) and fluorescein labeled-deoxyuridine (dUTP). The process allows 3′ end labeling of DNA molecules which were nicked during the DNA fragmentation phase of apoptosis (terminal deoxynucleotidyl transferase dUTP nick end labeling; TUNEL labeling). The cells were washed, treated with ribonuclease, washed and resuspended in medium containing propidium iodide to distinguish intact apoptotic cells. The contents of the assay wells were individually transferred into test tubes, and apoptosis was analyzed using a FACSCalibur flow cytometer (BD Immunocytometry Systems, San Jose, Calif.). Cells positive for Fl-dUTP were considered to be apoptotic, and the data were calculated as percent apoptotic cells.
For the assays in sections B and C, data were plotted as the concentration of compound incubated in serum versus percent apoptotic cells, and the concentration of compound inducing 50% apoptosis (ED50) was calculated from these dose response curves. The percent conversion of the test compounds to bioactive compound (assumed to be triptolide) was calculated in reference to the result with triptolide incubated in parallel in human serum in the same experiment, as the percent of the ED50 of the compound compared to that for triptolide, which was taken as 100%.

[2] = system: HT-29 human colon cancer cell line tumor xenografts; settings: HT-29 xenografts, cited from earlier work
[3] = system: Jurkat human T lymphocyte cell line; experiment: Annexin V apoptosis assay after incubation of compound with human serum; type: cell-based
Description: as §1, §2
(§3) Pooled human serum was stored in aliquots at −80° C. […]
Test samples (incubated in human serum as described in section A) were prepared and diluted as described in section B, and Jurkat human T lymphocyte cells were prepared and added to wells containing 100 μl of the diluted compounds, also as described in section B. The plates were incubated at 37° C. in a 5% CO2 incubator. […] Cells positive for Annexin V binding were considered to be apoptotic, and the data were calculated as percent apoptotic cells. […]

[4] = system: IL-2 production in Jurkat human T lymphocyte cells; experiment: IL-2 production (inhibition) assay after incubation of compound with human serum; type: cell-based
Description: as §1, §2, §3
Test samples, incubated in human serum as described in Example 7A, were diluted to 1 mM in complete tissue culture medium. […] The stored supernatants were analyzed for human IL-2 concentration using the Luminex 100 (Luminex Corporation, Austin, Tex.), Luminex microspheres coupled with anti-IL-2 capture antibody, and fluorochrome-coupled anti-IL-2 detection antibody. The data were expressed as ng/ml of IL-2. […]

Question: Which EC50 [1] does the source give for `CC(C)[C@]12O[C@H]1[C@@H]1O[C@]13[C@]1(O[C@H]1C[C@H]1C4=C(CC[C@@]13C)C(=O)OC4)[C@@H]2OC(=O)C(CCC(=O)OCc1ccccc1)NC(=O)OCc1ccccc1` (mixture of isomers) [PG657, Triptolide 14-γ-Benzyl-N-benzyloxycarbonyl-(L)-glutamate Ester, mixture with D-isomer] here?
Answer: 300 nM

Question: And the “Conversion (relative activity compared to PG490) (%)” value [1]?
Answer: 10%

Question: With `CC(C)C12OC1C1OC13C1(C)CCC4=C(COC4=O)C1CC1OC13C2OC(=O)CCC(=O)O` (stereo not drawn) [14-succinate derivative of triptolide] as the compound, how does the Tumor regression [2] read?
Answer: induced tumor regression

Question: And the Tumor growth inhibition ([2]; in comparison to 5-FU and CPT-11)?
Answer: strongly inhibited tumor growth, to a significantly greater degree than 5-FU and CPT-11

Question: Which results are given for `CC(C)[C@]12O[C@H]1[C@@H]1O[C@]13[C@]1(O[C@H]1C[C@H]1C4=C(CC[C@@]13C)C(=O)OC4)[C@@H]2OC(=O)CC[C@H](NC(=O)OC(C)(C)C)C(=O)OC(C)(C)C` [PG658, Triptolide 14-N-t-Butoxycarbonyl-α-t-butyl-L-glutamate Ester]?
Answer: EC50 ([1]; Homo sapiens, Jurkat): 750 nM; Conversion (relative activity compared to PG490) (%) [1]: 4.0%

Question: Which EC50 ([1]; Homo sapiens, Jurkat) does the source give for `CC(C)[C@]12O[C@H]1[C@@H]1O[C@]13[C@]1(O[C@H]1C[C@H]1C4=C(CC[C@@]13C)C(=O)OC4)[C@@H]2OC(=O)CC[C@@H](NC(=O)OCc1ccccc1)C(=O)OCc1ccccc1` [PG660, Triptolide 14-α-Benzyl-N-benzyloxycarbonyl-D-glutamate Ester] here?
Answer: 1100 nM

Question: And the “Conversion (relative activity compared to PG490) (%)” value [1]?
Answer: 2.7%

Question: With `CC(C)[C@]12O[C@H]1[C@@H]1O[C@]13[C@]1(O[C@H]1C[C@H]1C4=C(CC[C@@]13C)C(=O)OC4)[C@@H]2OC(=O)CC[C@H](N)C(=O)O` [PG661, 14-γ-L-glutamate Ester of Triptolide] as the compound, how does the EC50 ([3]; Jurkat cells, 24 h, compound pre-incubated 48 hr at 37° C. in pooled human serum, read-out: ED50 (nM) after 48 hr incubation with human serum) read?
Answer: 34700 nM

Question: And the “Conversion (relative activity compared to PG490) (%)” value ([3]; percent of ED50 relative to triptolide incubated in parallel in human serum (taken as 100%))?
Answer: 0.16%

Question: And the “Conversion (relative activity compared to PG490) (%)” value ([4]; IL-2 inhibition assay, percent of IC50 relative to triptolide incubated in parallel (taken as 100%))?
Answer: 1.4%

Question: And the IC50 ([4]; IL-2 inhibition, anti-CD3/PMA-stimulated Jurkat cells, 24 h, compound pre-incubated 48 hr in human serum, 50% decrease in IL-2 concentration)?
Answer: 330 nM
